What was measured:
[1] = Human pharmacokinetics predicted from preclinical data; settings: in humans, based on preclinical data
[2] = as of 23 Mar. 2022, 31 patients dosed

COc1ccccc1S(=O)(=O)Nc1noc2cc(Cn3cccn3)cc(OC)c12 [COMPOUND A, 2-Methoxy-N-{4-methoxy-6-[(1H-pyrazol-1-yl)methyl]-1,2-benzoxazol-3-yl}benzene-1-sulfonamide]
predicted Vss [1]: ~0.1 L/kg
predicted oral bioavailability [1]: high oral bioavailability
predicted plasma CL [1]: ~6 mL/h/kg
predicted t [1]: approximately 12 h
COVID-19, all-causality SAE, by patient frequency (as of 23 Mar. 2022): 2
COVID-19, all-causality Grade 3 TEAE [2]: 3.2%
Pneumonitis, Grade 5 TEAE [2]: 3.2%
Pneumonitis, Grade 5 treatment-related AE [2]: 3.2%
Urinary tract infection, all-causality Grade 3 TEAE [2]: 3.2%
MTD (cut-off 30 Sep. 2022): not identified
Alanine aminotransferase increased, all-causality Grade 3 TEAE (human, in vivo): 6.5%
Alanine aminotransferase increased, all-causality TEAE, any grade (human, in vivo): 25.8%
Anaphylactic reaction, all-causality Grade 3 TEAE (human, in vivo): 3.2%
Anemia, Grade 3 treatment-related AE (human, in vivo): 16.1%
Anemia, TRAE, any grade (human, in vivo): 54.8%
Anemia, all-causality Grade 3 TEAE (human, in vivo): 16.1%
Anemia, all-causality TEAE, any grade (human, in vivo): 54.8%
Aspartate aminotransferase increased, all-causality TEAE, any grade (human, in vivo): 29.0%
Bone pain, all-causality SAE, by patient frequency (human, in vivo): 1
Diarrhea, Grade 3 treatment-related AE (human, in vivo): 3.2%
Diarrhea, TRAE, any grade (human, in vivo): 29.0%
Diarrhea, all-causality Grade 3 TEAE (human, in vivo): 3.2%
Diarrhea, all-causality TEAE, any grade (human, in vivo): 35.5%
Dysgeusia, TRAE, any grade (human, in vivo): 80.6%
Dysgeusia, all-causality TEAE, any grade (human, in vivo): 83.9%
Dysphagia, all-causality SAE, by patient frequency (human, in vivo): 1
Embolism, Grade 3 treatment-related AE (human, in vivo): 3.2%
Embolism, all-causality Grade 3 TEAE (human, in vivo): 3.2%
Embolism, all-causality SAE, by patient frequency (human, in vivo): 1
Fatigue, all-causality Grade 3 TEAE (human, in vivo): 3.2%
Fatigue, all-causality TEAE, any grade (human, in vivo): 25.8%
Flank pain, all-causality Grade 3 TEAE (human, in vivo): 3.2%
Flank pain, all-causality SAE, by patient frequency (human, in vivo): 1
Grade 4 treatment-related AEs (human, in vivo): no Grade 4 treatment-related AEs
Haematuria, all-causality Grade 3 TEAE (human, in vivo): 3.2%
Haematuria, all-causality SAE, by patient frequency (human, in vivo): 1
Hypercalcaemia, Grade 4 TEAE (human, in vivo): 3.2%
Hypotension, all-causality Grade 3 TEAE (human, in vivo): 6.5%
Hypotension, all-causality SAE, by patient frequency (human, in vivo): 2
Hypotension, treatment-related SAE, by patient frequency (human, in vivo): 1
Lymphocyte count decreased, Grade 3 treatment-related AE (human, in vivo): 3.2%
Lymphocyte count decreased, all-causality Grade 3 TEAE (human, in vivo): 6.5%
Neutrophil count decreased/Neutropenia, Grade 3 treatment-related AE (human, in vivo): 29.1%
Neutrophil count decreased/Neutropenia, TRAE, any grade (human, in vivo): 51.6%
Neutrophil count decreased/Neutropenia, all-causality Grade 3 TEAE (human, in vivo): 29.1%
Neutrophil count decreased/Neutropenia, all-causality TEAE, any grade (human, in vivo): 51.6%
Platelet count decreased, TRAE, any grade (human, in vivo): 22.6%
Platelet count decreased, all-causality TEAE, any grade (human, in vivo): 22.6%
Pneumonitis, all-causality SAE, by patient frequency (human, in vivo): 1
Pneumonitis, treatment-related SAE, by patient frequency (human, in vivo): 1
Pulmonary embolism, all-causality Grade 3 TEAE (human, in vivo): 3.2%
Thrombocytopenia, Grade 3 treatment-related AE (human, in vivo): 3.2%
Thrombocytopenia, all-causality Grade 3 TEAE (human, in vivo): 3.2%
White blood cell count decreased, Grade 3 treatment-related AE (human, in vivo): 9.7%
White blood cell count decreased, TRAE, any grade (human, in vivo): 29.0%
White blood cell count decreased, all-causality Grade 3 TEAE (human, in vivo): 9.7%
White blood cell count decreased, all-causality TEAE, any grade (human, in vivo): 29.0%
all-causality SAEs, Total Number of Cases (human, in vivo): 9
all-causality SAEs, Total Number of Subjects (human, in vivo): 8
all-causality SAEs, Total Number of events (human, in vivo): 10
patients with at least one TEAE (human, in vivo): 31 patients
patients with at least one treatment-related adverse event (TRAE) (human, in vivo): 31 patients
severity of TRAEs (human, in vivo): majority of TRAEs were G1-2
treatment-related SAEs, Total Number of Cases (human, in vivo): 2
treatment-related SAEs, Total Number of Subjects (human, in vivo): 2
treatment-related SAEs, Total Number of events (human, in vivo): 2
RDE (human, in vivo, 28 days): 5 mg QD
Recommended dose for expansion (RDE) (human, in vivo, 28 days): 5 mg QD
kind of DLTs (human, in vivo, 28 days): Grade 3 neutropenia
